The experiment in a line: Corrosion testing of 316 steel coupons with acidic fluids. As to conditions: for corrosion protection when used separately: alkyne alcohol or cinnamaldehyde alone in the inhibitor. An excerpt:
Corrosion inhibitor compositions according to preferred embodiments of the present invention were exposed to corrosion testing. Various steel grades (stainless steel and carbon steel) were subjected to acid compositions comprising corrosion inhibitors according to the present invention against known corrosion inhibitors to the listed compositions for various periods of time at varying temperatures. A desirable corrosion inhibition result was one where the lb/ft2 corrosion number is at or below 0.05. More preferably, that number is at or below 0.02.
33% HCl; MEA in a 5.5:1 ratio and 50% HCl; MEA in a 5.5:1 ratio indicate the volume amount of the original concentration of a stock solution containing HCl and Monoethanolamine in a ratio of 5.5:1. The HCl loading of a 33% HCl; MEA in a 5.5:1 ratio is approximately 6.5% HCl. The HCl loading of 50% HCl; MEA in a 5.5:1 ratio is approximately 10% HCl.

In the case of `C#CCO` [propargyl alcohol], the “corrosion protection when used separately” value was “did not provide corrosion protection sufficient”.

Turning to `CC(C)=CCCC(C)=CC=O` (racemic) [Citral, (±)-3,7-Dimethyl-2,6-octadienal], under “higher temperatures (even 110° C. to 120° C.)”, the prevention of pitting entry was “some effectiveness for the prevention of pitting”.

On to `O=CC=Cc1ccccc1` [cinnamaldehyde], for which the “corrosion protection when used separately” value is “did not provide corrosion protection sufficient”. Moreover, the “film forming, protection of stainless steel” value (at these temperatures (90° C. to 120° C.)) is on record as “effective film former”.

Values taken from patent US12241021B2, “Method for fracking of simulation of hydrocarbon bearing formation” (Fluid Energy Group Ltd., priority 2018, dated 2025).
